US20200000772A1, “CENICRIVIROC COMBINATION THERAPY FOR THE TREATMENT OF FIBROSIS” (Tobira Therapeutics, Inc., priority 2014, published 2020)
“Also recorded” adds a separate entry of the source.

Experiments:
[1] = test system: adults with CCR5 tropic HIV-1; assay: Study 202 post-hoc APRI and FIB-4 fibrosis index scores; format: in vivo, human
Protocol: APRI and FIB-4 scores were calculated. Change in score category from baseline (BL) to Weeks 24 and 48 was assessed in patients with non-missing data. Correlations between changes from BL in APRI and FIB-4 scores, and MCP-1 (CCR2 ligand) and sCD14 (inflammatory biomarker) levels were evaluated.

CCR2 = CCR2 (Homo sapiens, UniProt P41597); assay: CCR2 antagonism in in vitro, ex vivo and clinical studies; details: ex vivo, Studies 652-2-201 and 652-2-202
Excerpt: Clinical evidence of CCR2 and CCR5 antagonism was established by measuring changes from baseline in plasma MCP-1 (a ligand of CCR2) concentrations and changes in plasma HIV-RNA (CCR5 co-receptor required for HIV entry), respectively, in these 2 Phase 2 Studies.

[2] = Phase 1 CVC and pioglitazone co-administration PK and safety study; format: in vivo, healthy subjects; details: CVC 150 mg QD and PGZ 45 mg QD
Protocol: Plasma samples were collected prior to each dose and over 24 hours at the end of each treatment period. Cmax, Cmin, tmax, and AUC0-tau were determined using non-compartmental methods. Geometric means, GMRs and CIs were calculated.

[3] = Mouse toxicity studies without surgical procedures; format: in vivo; details: CVC doses up to 2000 mg/kg/day
[4] = Chronic (3- and 9-month) monkey toxicity studies; format: in vivo
[5] = test system: renal fibrosis induced by unilateral ureter occlusion (UUO); assay: Mouse UUO model of renal fibrosis; format: in vivo, CD-1 mice
Protocol: Test animals were allocated to weight-matched treatment groups on the day prior to the surgical procedure (Day −1). Male CD-1 mice (N=51; age, 7-8 weeks) underwent either sham surgery or total ligation of the right ureter, i.e. UUO, via aseptic laparotomy (FIG. 5). […] Another group received the anti-transforming growth factor TGF-β1 antibody, compound 1D11 (positive control) at 3 mg/kg/day from Days −1 to 4, injected intraperitoneally once daily, and vehicle control from Days 0 to 5. […] On Day 5, animals were anaesthetised, blood and tissues were collected prior to sacrifice.
Study endpoints included: a) body and kidney weights; b) fibrosis in obstructed kidney evaluated via histological quantitative image analysis of picrosirius red staining (ten images/depth/kidney obtained and assessed in a blinded fashion using light microscopy [at 200×] to enable sampling of 60-70% of the renal cortical area) and quantified by a composite Collagen Volume Fraction (CVF [% total area imaged]) score expressed as the average positive stain across three anatomically distinct ([…] apart) tissue sections, or depths, from the obstructed kidney; c) hydroxyproline content of frozen renal cortical tissue biopsies as assessed by biochemical analyses; d) mRNA expression of profibrotic and inflammatory biomarkers (including MCP-1, Collagen 1a1, Collagen 3a1, TGF-β1, Fibronectin-1, α-smooth muscle actin (α-SMA) and connective tissue growth factor-1 (CTGF-1); assessed via Luminex® (Life Technologies™, Carlsbad, Calif., USA) assay with relative expression normalised to HPRT (hypoxanthine phosphoribosyltransferase).
Data are expressed as mean±standard error of mean (SEM). Statistical analyses were performed using GraphPad Prism® (GraphPad Software, Inc., San Diego, Calif., USA). Treatment differences between sham-surgery+vehiclecontrol and UUO+vehicle-control groups, and between UUO+vehicle-control and UUO+compound-1D1 (positive control) groups, were analysed by unpaired t-Test. Treatment differences between UUO+vehicle-control and CVC-dose groups were analysed by one-way ANOVA (analysis of variance) with Dunnett's test (post-hoc).

[6] = test system: thioacetamide (TAA)-induced hepatic fibrosis; assay: Rat model of thioacetamide-induced liver fibrosis and cirrhosis; format: in vivo, Sprague-Dawley rats; details: first 8 weeks
Protocol: Fibrosis was induced in male Sprague-Dawley rats by intraperitoneal administration of TAA 150 mg/kg 3 times/week for 8 weeks. […] Biochemical, gene expression and histologic evaluations of the liver were conducted.

CCR5 = CCR5 (Homo sapiens, UniProt P51681); assay: CCR5 antagonism in in vitro, ex vivo and clinical studies; details: ex vivo, Studies 652-2-201 and 652-2-202
[7] = Tissue distribution in rodents; format: in vivo
Excerpt: Infiltration of various immune cell populations, resulting in inflammation, is a central pathogenic feature following acute- and chronic liver injury. Chronic liver inflammation leads to continuous hepatocyte injury which can lead to fibrosis, cirrhosis, ESLD, and HCC. Interactions between intra-hepatic immune cells lead to increased activation and migration of Kupffer cells and HSCs and are critical events for developing liver fibrosis. Additionally, there is increasing evidence of the role of CCR2 and CCR5 in the pathogenesis of liver fibrosis. These members of the C-C chemokine family are expressed by pro-fibrogenic cells including pro-inflammatory monocytes and macrophages, Kupffer cells, and HSCs. CCR2 signaling plays an important role in the pathogenesis of renal fibrosis through regulation of bone marrow-derived fibroblasts. CCR2- and CCR5-positive monocytes as well as CCR5-positive T lymphocytes are attracted by locally released MCP-1 and RANTES, and can contribute to chronic interstitial inflammation in the kidney. […] Disruption of the intestinal microbiota and its downstream effects on the gut-liver axis both play an important role in metabolic disorders such as obesity, non-alcoholic fatty liver disease (NAFLD) and non-alcoholic steatohepatitis (NASH).

HIV-1 infected subjects = assay: Study 202 efficacy and tolerability; format: in vivo, human; details: CVC 100 mg and 200 mg for up to 48 weeks, 115 subjects
[8] = CVC 7 and 20 mg/kg/day, compound 1D11, vs UUO+vehicle-control

Sequence of CCR5 (P51681 whole entry): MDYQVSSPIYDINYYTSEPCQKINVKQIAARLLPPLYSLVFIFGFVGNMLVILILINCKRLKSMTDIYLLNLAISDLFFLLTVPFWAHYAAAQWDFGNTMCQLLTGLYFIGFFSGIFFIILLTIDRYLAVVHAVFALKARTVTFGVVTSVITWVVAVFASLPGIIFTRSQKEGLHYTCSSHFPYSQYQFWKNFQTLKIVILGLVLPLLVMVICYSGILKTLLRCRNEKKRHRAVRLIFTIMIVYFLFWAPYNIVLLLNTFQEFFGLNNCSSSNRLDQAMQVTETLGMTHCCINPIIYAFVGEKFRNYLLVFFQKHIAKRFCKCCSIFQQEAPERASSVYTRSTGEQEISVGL
Sequence of CCR2 (P41597 whole entry): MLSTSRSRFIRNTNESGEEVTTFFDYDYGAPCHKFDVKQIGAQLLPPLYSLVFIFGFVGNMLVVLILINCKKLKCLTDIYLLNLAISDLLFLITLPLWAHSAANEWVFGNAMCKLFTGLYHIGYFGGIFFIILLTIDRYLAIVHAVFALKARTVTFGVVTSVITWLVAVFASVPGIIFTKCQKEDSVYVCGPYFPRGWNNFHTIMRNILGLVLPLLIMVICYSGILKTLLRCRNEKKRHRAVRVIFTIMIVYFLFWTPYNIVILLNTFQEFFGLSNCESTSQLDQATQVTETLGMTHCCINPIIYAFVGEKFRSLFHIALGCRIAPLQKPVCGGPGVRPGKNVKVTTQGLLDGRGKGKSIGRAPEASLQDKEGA

With CCCCOCCOc1ccc(-c2ccc3c(c2)/C=C(/C(=O)Nc2ccc([S@@+]([O-])Cc4cncn4CCC)cc2)CCCN3CC(C)C)cc1 [CVC, (S)-8-[4-(2-Butoxyethoxy)phenyl]-1-isobutyl-N-(4-{[(1-propyl-1H-imidazol-5-yl)methyl]sulfinyl}phenyl)-1,2,3,4-tetrahydro-1-benzazocine-5-carboxamide] the “subjects with APRI 0.5-1.5” value ([1]; Baseline) was 14%, the “subjects with APRI <0.5” value ([1]; Baseline) was 84% and the “subjects with APRI >1.5” value ([1]; Baseline) was 2%. For the same molecule, the “subjects with FIB-4 1.45-3.25” value ([1]; Baseline) was 17%, the “subjects with FIB-4 <1.45” value ([1]; Baseline) was 82% and the “subjects with FIB-4 >3.25” value ([1]; Baseline) was 1%. The “subjects with APRI 0.5-1.5” value ([1]; Week 24) was 7%, the “subjects with APRI <0.5” value ([1]; Week 24) was 93% and the “subjects with APRI decreased 1 category from baseline” value ([1]; Week 24) was 14%. For the same molecule, the “subjects with FIB-4 1.45-3.25” value ([1]; Week 24) was 7%, the “subjects with FIB-4 <1.45” value ([1]; Week 24) was 93% and the “subjects with FIB-4 decreased 1 category from baseline” value ([1]; Week 24) was 13%. For the same molecule, the “subjects with APRI 0.5-1.5” value ([1]; Week 48) was 8%, the “subjects with APRI <0.5” value ([1]; Week 48) was 91% and the “subjects with APRI >1.5” value ([1]; Week 48) was 1%. The “subjects with APRI decreased 1 category from baseline” value ([1]; Week 48) was 10%, the “subjects with FIB-4 1.45-3.25” value ([1]; Week 48) was 5% and the “subjects with FIB-4 <1.45” value ([1]; Week 48) was 94%. For the same molecule, the “subjects with FIB-4 >3.25” value ([1]; Week 48) was 1%, the “subjects with FIB-4 decreased 1 category from baseline” value ([1]; Week 48) was 14% and the “subjects with improvements in APRI and FIB-4 scores over time” value ([1]; pooled data for CVC 100 mg and 200 mg) was ≥ 10%. For the same molecule, the “antagonism of CCR2” value (CCR2) was “potent and concentration-dependent antagonism”, the Cmin on co-administration [2] was “remained unchanged” and the “steady-state Cmax and AUC0-tau on co-administration” value [2] was “modest decrease”. For the same molecule, the tolerability [3] was “well tolerated”, the “plasma MCP-1 levels, fold over controls” value ([4]; 1000 mg/kg/day, chronic (3- and 9-month) monkey toxicity studies) was ~5 fold and the “indication of inflammation in clinical pathology parameters or any tissue incl. liver” value ([4]; high dose of 1000 mg/kg/day) was “No indication of inflammation”. The “effect on body weight” value ([5]; CVC 7 mg/kg/day oral, compound 1D11 3 mg/kg/day i.p., Day 5) was “no effect”, the “decrease in body weight relative to UUO+vehicle-control” value ([5]; CVC 20 mg/kg/day, Day 5) was 5% and the “tolerability after UUO surgery” value ([5]; CVC 100 mg/kg/day group (N=9)) was “terminated early due to moribundity”. For the same molecule, the “effect on UUO-induced increases in obstructed kidney hydroxyproline content” value ([5]; CVC 7 and 20 mg/kg/day) was “Neither dose of CVC tested affected”, the “effects on obstructed or contralateral kidney weight or kidney weight index” value ([5]; CVC 7 and 20 mg/kg/day, compound 1D11 3 mg/kg/day, vs UUO+vehicle-control) was “No significant treatment effects” and the “Collagen 1a1, Collagen 3a1, TGF-β1 and Fibronectin-1 mRNA expression in obstructed kidney” value [5, 8] was “attenuated UUO-induced increases”. The “obstructed kidney cortical MCP-1, α-SMA and CTGF-1 mRNA expression” value [5, 8] was “did not have significant effects”, the “reduction of fibrosis by collagen morphometry” value ([6]; Group 1a: CVC 30 mg/kg/day concurrently with TAA) was 49% and the “reduction of fibrosis by collagen morphometry” value ([6]; Group 1b: CVC 100 mg/kg/day concurrently with TAA) was 38%. For the same molecule, the “antagonism of CCR5” value (CCR5) was “potent and concentration-dependent antagonism”, the tissue distribution [7] was “high distribution in the liver, mesenteric lymph node, and intestine” and the “tolerability in HIV-1 infected subjects” value (HIV-1 infected subjects) was “generally well tolerated; also recorded: effective and well tolerated”.
